Reference: PMC9097471, “Development of Selective Phosphatidylinositol 5-Phosphate 4-Kinase γ Inhibitors with a Non-ATP-competitive, Allosteric Binding Mode” (Journal of Medicinal Chemistry, 2022)
pIC50, pKd: −log10 of the molar value. Where two headings read alike, the source gives them in different places.

Columns and labels:
PI5P4Kγ+ = molecular target: T1, PI5P4Kγ+ (Homo sapiens, UniProt Q8TBX8, D138G/D197E/E133P/E135D/E153T/E196G/G136S/G139A/N195G/S132L/S134N); assay: ADP-Glo inhibition assay; type: biochemical; settings: for PI5P4Kγ+ LE: ligand efficiency from PI5P4Kγ+ pIC50
T1 construct: GST (N, cleaved yes); made in house; host or cells: E. coli BL21(DE3), pGEX6P
T1 sequence (Q8TBX8 with tags, fused parts or gaps INS131LPN/S132D/E133S/S134Q/E135A/G136R/D138G/G139A/E153T/N195G/E196G/D197E): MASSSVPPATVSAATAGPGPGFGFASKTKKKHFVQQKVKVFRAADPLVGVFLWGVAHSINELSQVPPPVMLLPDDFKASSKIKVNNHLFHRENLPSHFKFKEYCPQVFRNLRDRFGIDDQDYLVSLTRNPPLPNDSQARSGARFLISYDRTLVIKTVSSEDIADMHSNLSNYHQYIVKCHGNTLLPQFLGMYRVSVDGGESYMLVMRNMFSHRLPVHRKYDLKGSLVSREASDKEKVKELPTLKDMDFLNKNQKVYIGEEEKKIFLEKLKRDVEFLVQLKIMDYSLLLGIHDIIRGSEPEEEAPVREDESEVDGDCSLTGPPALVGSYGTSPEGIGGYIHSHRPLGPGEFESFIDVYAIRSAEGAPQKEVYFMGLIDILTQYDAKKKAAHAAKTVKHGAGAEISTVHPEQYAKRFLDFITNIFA
Method: Recombinant mutant PI5P4Kγ+ was prepared essentially as described previously.[25] […] Cultures were induced with 0.4 mM IPTG and probe sonicated in the presence of protease inhibitors. The GST fusion protein of PI5P4Kγ+ was harvested by binding to glutathione sepharose beads (Cytiva) and cleaved in situ with 50U of PreScission protease (Cytiva) for 4 h at 4 °C. The cleaved protein was further purified by size-exclusion chromatography (AKTA Pure, Cytiva). The protein purity was confirmed by sodium dodecyl sulphate–polyacrylamide gel electrophoresis, and the concentration was determined by colorimetric assay (Bio-Rad).
Statistical analysis was performed using nonparametric testing in Prism 8 (GraphPad). Activity pIC50 values and in vivo binding pEC50 values were estimated using a 4-parameter fit (Dotmatics).

Caco-2 cell permeability = type: in vitro ADME; settings: human; for Papp A→B at 1 h, 10 µM: Caco-2, apical-to-basolateral; for efflux ratio at 1 h, 10 µM: Caco-2 efflux ratio (B-A/A-B), read-out: ER
Method: Permeability: bi-directional Caco-2 cell permeability was performed by Charles River Laboratories Inc. (ADME-SOP-49). Briefly, compounds were administered at 10 µM (1% DMSO final) to the apical or basolateral side of a polarised Caco-2 cell monolayer, then incubated at 37 °C for 60 minutes before appearance on the opposite side of the monolayer was determined by mass spectrometry. The efflux ratio (ER) is calculated from the ratio of B-A […]

PI5P4Kβ = molecular target: T2, PI5P4Kβ (Homo sapiens, UniProt P78356); assay: KINOMEscan KD (Eurofins Discovery, DiscoverX); type: binding
T2 sequence (P78356 1-416): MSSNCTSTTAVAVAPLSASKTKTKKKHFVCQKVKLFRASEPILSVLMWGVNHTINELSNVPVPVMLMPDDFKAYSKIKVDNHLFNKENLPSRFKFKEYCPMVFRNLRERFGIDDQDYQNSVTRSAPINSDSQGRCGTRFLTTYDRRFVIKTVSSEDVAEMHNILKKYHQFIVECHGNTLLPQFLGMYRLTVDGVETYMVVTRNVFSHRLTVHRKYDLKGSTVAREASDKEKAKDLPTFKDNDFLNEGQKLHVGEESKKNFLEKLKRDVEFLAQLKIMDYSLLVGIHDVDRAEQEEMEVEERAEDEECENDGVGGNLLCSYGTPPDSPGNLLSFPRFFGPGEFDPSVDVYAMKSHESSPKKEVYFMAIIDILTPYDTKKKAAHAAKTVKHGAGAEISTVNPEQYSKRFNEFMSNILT
Method: (§1) a Data were generated at Eurofins Discovery using DiscoverX KINOMEscanTM technology. Streptavidin-coated magnetic beads were treated with biotinylated small molecule ligands for 30 minutes at room temperature to generate affinity resins for kinase assays. The liganded beads were blocked with excess biotin and washed with blocking buffer (SeaBlock (Pierce), 1% BSA, 0.05% Tween 20, 1 mM DTT) to remove unbound ligand and to reduce non-specific binding. Binding reactions were assembled by combining kinases, liganded affinity beads, and test compounds in 1x binding buffer (20% SeaBlock, 0.17x PBS, 0.05% Tween 20, 6 mM DTT). Test compounds were prepared as 111X stocks in 100% DMSO. Kds were determined using an 11-point 3-fold compound dilution series with three DMSO control points. All compounds for Kd measurements are distributed by acoustic transfer (non-contact dispensing) in 100% DMSO. The compounds were then diluted directly into the assays such that the final concentration of DMSO was 0.9%. All reactions performed in polypropylene 384-well plate. Each was a final volume of 0.02 ml. The assay plates were incubated at room temperature with shaking for […]
(§2) room temperature with shaking for 30 minutes. The kinase concentration in the eluates was measured by qPCR. […]

PI5P4Kγ-WT = molecular target: T3, PI5P4Kγ-WT (Homo sapiens, UniProt Q8TBX8); assay: KINOMEscan KD (Eurofins Discovery, DiscoverX); type: binding
T3 sequence (Q8TBX8 1-421): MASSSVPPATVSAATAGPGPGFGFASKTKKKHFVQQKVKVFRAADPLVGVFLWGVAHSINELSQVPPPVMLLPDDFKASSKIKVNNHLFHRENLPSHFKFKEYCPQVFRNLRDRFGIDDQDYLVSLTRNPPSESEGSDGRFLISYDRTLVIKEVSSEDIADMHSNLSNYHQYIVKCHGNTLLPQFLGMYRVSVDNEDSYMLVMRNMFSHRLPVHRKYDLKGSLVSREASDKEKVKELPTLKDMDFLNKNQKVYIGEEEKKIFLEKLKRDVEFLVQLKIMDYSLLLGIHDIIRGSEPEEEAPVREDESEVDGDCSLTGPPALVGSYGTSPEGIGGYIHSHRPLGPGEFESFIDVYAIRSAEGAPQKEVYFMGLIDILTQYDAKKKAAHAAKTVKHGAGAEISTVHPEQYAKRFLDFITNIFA
Method: as §1, §2

PI5P4Kα-WT = molecular target: T4, PI5P4Kα-WT (Homo sapiens, UniProt P48426); assay: ADP-Glo inhibition assay; settings: ADP-Glo
T4 sequence (P48426 1-406): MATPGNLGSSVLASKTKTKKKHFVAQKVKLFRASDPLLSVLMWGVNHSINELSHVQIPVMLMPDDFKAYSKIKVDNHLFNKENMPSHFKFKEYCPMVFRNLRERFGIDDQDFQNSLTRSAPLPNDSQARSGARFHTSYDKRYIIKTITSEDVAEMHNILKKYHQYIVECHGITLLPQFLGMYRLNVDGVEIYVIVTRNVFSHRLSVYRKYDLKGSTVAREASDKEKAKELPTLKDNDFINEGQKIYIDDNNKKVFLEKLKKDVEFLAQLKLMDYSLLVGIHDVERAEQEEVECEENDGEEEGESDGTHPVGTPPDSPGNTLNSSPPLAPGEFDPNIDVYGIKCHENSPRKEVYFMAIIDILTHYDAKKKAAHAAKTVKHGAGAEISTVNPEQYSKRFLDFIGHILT
Source text: To enable direct comparisons, Promega’s ADP-Glo reporter assay was developed using a mutant form of the kinase. […] To mitigate concerns about being misled by the use of the PI5P4Kγ+ construct and the possible introduction of PI5P4Kα activity into the molecules, our screening cascade included the measurement of ADP-Glo activity at PI5P4Kα-WT (and PI5P4Kβ-WT to fully understand emerging selectivity profiles).

pIC50 (PI5P4Kγ+; ADP-Glo, new data, read-out: PI5P4Kγ+ IC50) | pIC50 (PI5P4Kα-WT; read-out: PI5P4Kα IC50, new data) | SMILES | IC50 (PI5P4Kγ+; ADP-Glo, mutant PI5P4Kγ+ construct, read-out: PI5P4Kγ+ pIC50 (converted)) [µM] | PI5P4Kγ+ LE (PI5P4Kγ+) | Papp A→B at 1 h, 10 µM (Caco-2 cell permeability) [×10⁻⁶ cm/s] | efflux ratio at 1 h, 10 µM (Caco-2 cell permeability) | pKd (PI5P4Kβ) | pKd (PI5P4Kγ-WT) | PI5P4Kα pIC50 (PI5P4Kα-WT)
– | – | CC(C)c1ccccc1-c1nc(NCc2ccccn2)c2c(ccn2C)n1 [Compound 40] | 0.631 | 0.32 | 122 | 0.4 | < 4.52 | 7.17 | <4.3
6.10 | < 4.30 | FC(F)(F)c1ccccc1-c1nc(NCc2cccs2)c2ccccc2n1 [Compound 1, NIH-12848, reference compound] | – | 0.32 | 6.4 | 0.9 | < 4.52 | 5.40 | <4.3
